PubChem BioAssay AID326 (DTP/NCI, 2004)
Values joined by “and” are separate entries in the source; they are usually repeats but may differ in a detail not shown here. Identical values can stand only once. Toxic doses and inconclusive results are not listed.

System: CD2F1 mice, P388/DHAQ leukemia ip, median survival T/C
Assay: NCI In Vivo Anticancer Drug Screen. Data for tumor model P388 Leukemia resistant to Dihydroxy Anthracenedione; NSC 299195 (intraperitoneal) in CD2F1 (CDF1) mice
Details: endpoint: median survival time, higher = longer survival
Method: The antitumor activity of compounds was measured in mice bearing transplantable tumors. Survival or tumor size were measured and the results are expressed as the measurement made in the treated group (T) divided by the measurement made in the vehicle treated control group (C). The tumor model used in this assay is P388 Leukemia resistant to Dihydroxy Anthracenedione; NSC 299195 (intraperitoneal) in CD2F1 (CDF1) mice

Structure (SMILES) | T/C (dose: 5.18 mg/kg/injection, schedule: Q04DX002 (ip), vehicle: saline) | T/C (dose: 8.64 mg/kg/injection, schedule: Q04DX002 (ip), vehicle: saline) | T/C (dose: 13.0 mg/kg/injection, schedule: Q04DX002 (ip), vehicle: water) | T/C (dose: 14.4 mg/kg/injection, schedule: Q04DX002 (ip), vehicle: saline) | T/C (dose: 21.6 mg/kg/injection, schedule: Q04DX002 (ip), vehicle: water) | T/C (dose: 36.0 mg/kg/injection, schedule: Q04DX002 (ip), vehicle: water) | T/C (dose: 40.0 mg/kg/injection, schedule: Q04DX002 (ip), vehicle: saline) | T/C (dose: 60.0 mg/kg/injection, schedule: Q04DX002 (ip), vehicle: water) | T/C (dose: 6.48 mg/kg/injection, schedule: Q04DX003 (ip), vehicle: saline) | T/C (dose: 7.78 mg/kg/injection, schedule: Q04DX003 (ip), vehicle: saline) | T/C (dose: 10.8 mg/kg/injection, schedule: Q04DX003 (ip), vehicle: saline) | T/C (dose: 18.0 mg/kg/injection, schedule: Q04DX003 (ip), vehicle: saline) | T/C (dose: 30.0 mg/kg/injection, schedule: Q04DX003 (ip), vehicle: saline) | T/C (dose: 36.0 mg/kg/injection, schedule: Q04DX003 (ip), vehicle: saline) | T/C (dose: 50.0 mg/kg/injection, schedule: Q04DX003 (ip), vehicle: saline)
C(=N/NC1=NCCN1)/c1c2ccccc2c(/C=N\NC2=NCCN2)c2ccccc12 | 103 % of control | 108 % of control | 111 % of control | 105 % of control | 118 % of control | 111 % of control | 98 % of control | 109 % of control | – | – | – | – | – | – | –
CC[C@](O)(C(=O)O)c1cc2n(c(=O)c1CO)Cc1cc3ccccc3nc1-2 | – | – | – | – | – | – | – | – | 102 % of control and 117 % of control and 121 % of control | 121 % of control | 115 % of control and 120 % of control | 115 % of control | 155 % of control | 164 % of control | 180 % of control
